In patent US20090143469A1, “SALTS OF NATEGLINIDE” (priority 2002, published 2009):
Where two headings read alike, the source gives them in different places.

Assays:
Assay type in all cases: physicochemical
[1] = Gain in weight at 84% RH (hygroscopicity) of nateglinide salts; settings: for Gain % (gain in weight at 84% RH): 84% RH (relative humidity), * = XRPD changed, confirmed by Thermalgravimetry; for hygroscopicity (in words): different relative humidities
[2] = Solubility in water of nateglinide salts
[3] = Bulk density of nateglinide salts

Compound	Gain % (gain in weight at 84% RH) [1]	Solubility Water [2] [µg/mL]	Bulk Density [3] [g/mL]	further results
CC(C)[C@H]1CC[C@H](C(=O)N[C@H](Cc2ccccc2)C(=O)O)CC1.CNC[C@H](O)[C@@H](O)[C@H](O)[C@H](O)CO [Comp. No. 12]	<0.1%	7300	0.16	hygroscopicity (in words) [1]: non-hygroscopic; water solubility compared with other forms (in words) [2]: lower than that of the alkaline metal salts of nateglinide
CC(C)[C@H]1CC[C@H](C(=O)N[C@H](Cc2ccccc2)C(=O)O)CC1 [Form B of nateglinide, N-(trans-4-isopropylcyclohexylcarbonyl)-D-phenylalanine, reference compound]			0.18	solubility [2]: 90 µg/mL
[K+] [Potassium]		>40000	0.17	
Lysine			0.50	
CC(C)[C@H]1CC[C@H](C(=O)N[C@H](Cc2ccccc2)C(=O)[O-])CC1.CC(C)[C@H]1CC[C@H](C(=O)N[C@H](Cc2ccccc2)C(=O)[O-])CC1.[Mg+2] [Comp. No. 11]	<0.1%	450	0.21	hygroscopicity (in words) [1]: non-hygroscopic; water solubility compared with other forms (in words) [2]: comparable to that of the calcium analogue
CC(C)[C@H]1CC[C@H](C(=O)N[C@H](Cc2ccccc2)C(=O)[O-])CC1.[Na+] [Compound No. 1]	1.19%			
[Ca] [Calcium]		540	0.24	
CC(C)C1CCC(C(=O)NC(Cc2ccccc2)C(=O)[O-])CC1.CC(C)C1CCC(C(=O)NC(Cc2ccccc2)C(=O)[O-])CC1.[Ca+2] (stereo not drawn) [Compound No. 9]	0.4%			
CC(C)C1CCC(C(=O)NC(Cc2ccccc2)C(=O)O)CC1.N (stereo not drawn) [Comp. No. 17]	<0.1%			
CC(C)[C@H]1CC[C@H](C(=O)N[C@H](Cc2ccccc2)C(=O)O)CC1.NCCCCC(N)C(=O)O [Comp. No. 14]	1.3%			
CC(C)C1CCC(C(=O)NC(Cc2ccccc2)C(=O)[O-])CC1.[K+] (stereo not drawn) [Compound No. 5]	8.2* %			
CC(C)[C@H]1CC[C@H](C(=O)N[C@H](Cc2ccccc2)C(=O)[O-])CC1.[Na+] [Sodium]		>40000	0.14	
CC(C)[C@H]1CC[C@H](C(=O)N[C@H](Cc2ccccc2)C(=O)O)CC1.NC(CO)(CO)CO [Comp. No. 13]	<0.1%		0.51	Solubility Water ([2]; listed as TRIS): >40000 µg/mL; Solubility Water ([2]; listed as tris(hydroxymethyl)-aminomethane salt of nateglinide): more than 40 mg/ml
Ammonium		<200	0.20	
CC(C)[C@H]1CC[C@H](C(=O)N[C@H](Cc2ccccc2)C(=O)O)CC1 [Form H of nateglinide, N-(trans-4-isopropylcyclohexylcarbonyl)-D-phenylalanine, reference compound]	<0.1%	90	0.28	
